Data taken from patent US20150157783A1, “METHOD TO SELECTIVELY BIND AND EXTRACT PHOSPHATE” (priority 2013, published 2015).

Legend:
[1] = UV-Vis titration, 1:1 binding of dihydrogen phosphate (Bu4N+ salt) in aqueous DMSO; conditions: for Binding constant (1:1) to H2PO4^−: 25% aqueous DMSO (v/v)
Description: (§1) Their interactions with anion salts were investigated in various aqueous dimethylsulfoxide (DMSO) mixtures.
(§2) Dilute non-aggregating solutions of a receptor S were titrated with a given anion X^− via a solution of its tetrabutylammonium salt and were monitored by UV-VIS spectrometery. UV absorption spectra (250-600 nm) were recorded three times for each solution and average values for each point were used; all of the spectra were background corrected by subtracting the absorption of the solvent. The wavelength with the maximum change in the concentration corrected absorption (Acor=A·C0/C, where C and C0 are the current and the initial receptor concentrations) was determined and then used for further analysis. Absorptions were plotted versus anion concentrations and the binding constants were determined by an iterative non-linear least squares curve fitting routine implemented in Excel using the equations below. Observed and calculated absorptions are given for each titration in the corresponding Tables and Figures.
(§3) K: binding constant for 1:1 complex formation
(§4) [S]:free receptor concentration
(§5) [S]0:total receptor concentration
(§6) [SX]:bound receptor concentration
(§7) [X]0:total anion concentration
(§8) A: absorption of the solution
(§9) A0:absorption of the initial solution (no anion added)
(§10) Amax:absorption of the solution if all the receptor was bound (infinite excess of anion at the initial receptor concentration)
(§11) In cases where there is a large excess of the anion, [X] about equals [X]0, and the plot of ΔAcor/[X] versus ΔAcor gives a straight line where the slope of the linear least squares fit of the data is the binding constant (K) and the intercept is K·ΔAmax:
(§12) with ΔAcor=(A−A0)·C0/C, where C and C0 are the current and the initial receptor concentrations; ΔAmax=Amax−A0.

[2] = UV-Vis titration, 1:1 binding of acetate (Bu4N+ salt) in aqueous DMSO; conditions: for Binding constant (1:1) to OAc^−: 25% aqueous DMSO (v/v)
Description: as §1, §2, §3, §4, §5, §6, §7, §8, §9, §10, §11, §12

[3] = UV-Vis titration, 1:1 binding of chloride (Bu4N+ salt) in aqueous DMSO; conditions: 25% aqueous DMSO (v/v)
Description: as §1, §2, §3, §4, §5, §6, §7, §8
A0:absorption of the initial solution (no anion added) […]

[4] = Solubility of receptor (qualitative)

SMILES	K1-bis/K1-mono for dihydrogen phosphate ([1]; 25% aqueous DMSO)	Binding constant (1:1) to H2PO4^− [1]	Binding constant (1:1) to OAc^− [2]	Binding constant K of 1:1 adduct with H2PO4^− ([1]; 0.5% DMSO-H2O mixture, 0-1 equivalents of anion)	association constant relative to the statistical value (36 M^−1) expected for one-arm binding of H2PO4^− ([1]; 25% aqueous DMSO)	acetate binding strength relative to 1-mono ([2]; 25% aqueous DMSO)	Binding constant (1:1) to Cl^− [3]	solubility [4]
O=[N+]([O-])c1ccc(NC(=S)Nc2ccccc2-c2cccc(-c3ccccc3NC(=S)Nc3ccc([N+](=O)[O-])cc3)c2)cc1 [1-bis, 1,3-bis[2-(3-(4—Nitrophenyl)thioureido)phenyl]benzene]	about 2	28 M⁻¹	–	–	–	–	–	–
O=[N+]([O-])c1ccc(NC(=S)Nc2ccccc2)cc1 [1-mono, 1-(4—Nitrophenyl)-3-phenylthiourea]	–	12 M⁻¹	12 M⁻¹	–	–	–	–	–
O=[N+]([O-])c1ccc(NC(=S)Nc2ccccc2-c2cc(-c3ccccc3NC(=S)Nc3ccc([N+](=O)[O-])cc3)cc(-c3ccccc3NC(=S)Nc3ccc([N+](=O)[O-])cc3)c2)cc1 [1-tris, 1,3,5-tris[2-(3-(4—Nitrophenyl)thioureido)phenyl]benzene]	–	4000 M⁻¹	35 M⁻¹	> 5e+06 M⁻¹	more than 100 fold	three times more strongly	1 M⁻¹	low solubility
FC(F)(F)c1cc(NC(=S)Nc2ccccc2-c2cc(-c3ccccc3NC(=S)Nc3cc(C(F)(F)F)cc(C(F)(F)F)c3)cc(-c3ccccc3NC(=S)Nc3cc(C(F)(F)F)cc(C(F)(F)F)c3)c2)cc(C(F)(F)F)c1 [2-tris, 1,3,5-tris[2-(3-(3,5-Trifluoromethylphenyl)thioureido)phenyl]benzene]	–	10000 M⁻¹	–	–	–	–	–	more soluble
